Laboratory results taken from patent publication US20240368096A1 (Enanta Pharmaceuticals, Inc., priority 2022, published 2024).
pEC50: −log10 of the molar value.

Tested on: HBV
Assay: HBV infection in HepG2-NTCP cells (HBeAg AlphaLISA in supernatants)
Type: cell-based
Settings: Hepatitis B virus, 192 h; HBV infection of HepG2-NTCP cells; HBeAg in supernatants at day 8 post infection; read-out: Cellular EC50
Summary of the method: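 Readout was day-8 supernatant HBeAg by AlphaLISA, with EC50 set against DMSO controls and binned A<0.1 μM, B 0.1-1 μM, C>1 μM. Compounds were added 2 h before HBV (2000 GE/cell, 4% PEG, 0.5% DMSO) to HepG2-NTCP A3 cells; from day 1 medium held 2.5% DMSO.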

Compared with `CN1[C@H](C2CCCCC2)CN(c2ccccc2)c2cc(N3CCN(S(C)(=O)=O)CC3)c(-c3ccc(F)c(C(=O)O)c3)cc2S1(=O)=O` [Example 536], `CN1[C@H](C2CCCCC2)CN(c2ccccc2)c2cc(O[C@H]3C[C@H](F)C3)c(-c3ccc(F)c(C(=O)O)c3)cc2S1(=O)=O` [Example 381] is higher in pEC50: 6.00 to 7.00 for the first, over 7.00 for the second. The second is the more potent here.

Compared with `CN1[C@H](C2CCCC2)CN(c2ccccc2)c2cc(Cl)c(-c3ccc(Cl)c(C(=O)O)c3)cc2S1(=O)=O` [Example 67], `CN1[C@H](C2CCCCO2)CN(c2ccccc2)c2cc(Cl)c(-c3ccc(F)c(C(=O)O)c3)cc2S1(=O)=O` (stereo partly drawn) [Example 104, 5-((3S)-7-chloro-2-methyl-1,1-dioxido-5-phenyl-3-(tetrahydro-2H-pyran-2-yl)-2,3,4,5-tetrahydrobenzo[f][1,2,5]thiadiazepin-8-yl)-2-fluorobenzoic acid] is lower in pEC50: over 7.00 for the first, 6.00 to 7.00 for the second.

First: CC(C)CC1CN(c2ccccc2)c2cc(C#N)c(-c3cccc(C(=O)O)c3)cc2S(=O)(=O)N1C (stereo not drawn) [Example 14]
Second: CC(C)C[C@@H]1CN(c2ccccc2)c2cc(-c3cccc(F)c3)c(-c3ccc(F)c(C(=O)O)c3)cc2S(=O)(=O)N1C [Example 575]
The pEC50 of the first is lower: 6.00 to 7.00 for the first, over 7.00 for the second.

`COC(=O)c1noc2ccc(-c3cc4c(cc3Cl)N(c3ccccc3)C[C@@H](CC(C)C)N(C)S4(=O)=O)cc12` [Example 182] and `CC(C)C[C@@H]1CN(c2ccccc2)c2cc(Cl)c(-c3ccc(OCC(F)(F)F)c(C(=O)O)c3)cc2S(=O)(=O)N1C` [Example 214, (R)-5-(7-chloro-3-isobutyl-2-methyl-1,1-dioxido-5-phenyl-2,3,4,5-tetrahydrobenzo[f] [1,2,5]thiadiazepin-8-yl)-2-(2,2,2-trifluoroethoxy)benzoic acid] fall in the same range of pEC50: 6.00 to 7.00 for the first, 6.00 to 7.00 for the second.

Going from `CN1[C@H](C2CCCCC2)CN(c2ccccc2)c2cc(O[C@@H]3CCCNC3)c(-c3ccc(F)c(C(=O)O)c3)cc2S1(=O)=O` [Example 399] to `CN1[C@H](C2CCCCC2)CN(c2ccccc2)c2cc(O[C@H]3C[C@@H](C#N)C3)c(-c3ccc(F)c(C(=O)O)c3)cc2S1(=O)=O` [Example 382], the pEC50 rises from under 6.00 to over 7.00.

`COCCOC(=O)Nc1ccc(-c2cc3c(cc2OCCOC)N(c2ccccc2)C[C@@H](C2CCCCC2)N(C)S3(=O)=O)cc1C(=O)O` [Example 479, (R)-5-(3-cyclohexyl-7-(2-methoxyethoxy)-2-methyl-1,1-dioxido-5-phenyl-2,3,4,5-tetrahydrobenzo[f][1,2,5]thiadiazepin-8-yl)-2-(((2-methoxyethoxy)carbonyl)amino)benzoic acid] and `Cc1cnc(COc2cc3c(cc2-c2ccc(F)c(C(=O)O)c2)S(=O)(=O)N(C)[C@H](C2CCCCC2)CN3c2ccccc2)s1` [Example 342] cannot be ordered by pEC50: over 7.00 for the first, over 7.00 for the second.

`CCCCCCCC[C@@H]1CN(c2ccccc2)c2cc(Cl)c(-c3ccc(C(=O)O)s3)cc2S(=O)(=O)N1C` [Example 84] and `CN1[C@H](CN=[N+]=[N-])CN(c2ccccc2)c2cc(Cl)c(-c3ccc(F)c(C(=O)O)c3)cc2S1(=O)=O` [Example 99, (S)-5-(3-(azidomethyl)-7-chloro-2-methyl-1,1-dioxido-5-phenyl-2,3,4,5-tetrahydrobenzo[f][1,2,5]thiadiazepin-8-yl)-2-fluorobenzoic acid] cannot be ordered by pEC50: under 6.00 for the first, under 6.00 for the second.

`CC(C)C[C@@H]1CN(c2ccccc2)c2cc(OCC34CCCN3CCC4)c(-c3ccc(F)c(C(=O)O)c3)cc2S(=O)(=O)N1C` [Example 450] and `CC(C)C[C@@H]1CN(c2ccccc2)c2cc(OC3CN(C)C3)c(-c3ccc(F)c(C(=O)O)c3)cc2S(=O)(=O)N1C` [Example 447] cannot be ordered by pEC50: under 6.00 for the first, under 6.00 for the second.

Compared with `CN1[C@H](C2CCCCC2)CN(c2ccccc2)c2cc(Cl)c(-c3cccc(C(=O)O)c3F)cc2S1(=O)=O` [Example 149, (R)-3-(7-chloro-3-cyclohexyl-2-methyl-1,1-dioxido-5-phenyl-2,3,4,5-tetrahydrobenzo[f][1,2,5]thiadiazepin-8-yl)-2-fluorobenzoic acid], `CN1[C@H](C2CCCCC2)CN(c2ccccc2)c2cc(Cl)c(-c3cccc(C(=O)O)n3)cc2S1(=O)=O` [Example 138, (R)-6-(7-chloro-3-cyclohexyl-2-methyl-1,1-dioxido-5-phenyl-2,3,4,5-tetrahydrobenzo[f][1,2,5]thiadiazepin-8-yl)picolinic acid] is lower in pEC50: over 7.00 for the first, 6.00 to 7.00 for the second. The first is the more potent here.

`CN1[C@H](C2CCCCC2)CN(c2ccccc2)c2cc(Cl)c(-c3cc(NC(=O)OCC4(C)CC4)c(C(=O)O)s3)cc2S1(=O)=O` [Example 254] and `CN1[C@H](C2CCCCC2)CN(c2ccccc2)c2cc(Cl)c(-c3cc(Cl)c(C(=O)O)s3)cc2S1(=O)=O` [Example 117] cannot be ordered by pEC50: over 7.00 for the first, over 7.00 for the second.

`CN1[C@H](C2CCCCC2)CN(c2ccccc2)c2cc(Cl)c(-c3ccc4oncc4c3)cc2S1(=O)=O` [Example 202] and `CN1[C@H](C2CCCCC2)CN(c2ccccc2)c2cc(Cl)c(-c3cccc(P(=O)(O)O)c3)cc2S1(=O)=O` [Example 232, (R)-(3-(7-chloro-3-cyclohexyl-2-methyl-1,1-dioxido-5-phenyl-2,3,4,5-tetrahydrobenzo[f][1,2,5]thiadiazepin-8-yl)phenyl)phosphonic acid] fall in the same range of pEC50: 6.00 to 7.00 for the first, 6.00 to 7.00 for the second.

First: CC(=O)NS(=O)(=O)c1cccc(-c2cc3c(cc2Cl)N(c2ccccc2)C[C@@H](C2CCCCC2)N(C)S3(=O)=O)c1 [Example 222]
Second: CC(=O)NS(=O)(=O)c1cc(-c2cc3c(cc2Cl)N(c2ccccc2)C[C@@H](C2CCCCC2)N(C)S3(=O)=O)ccc1F [Example 223]
The pEC50 of the first is lower: 6.00 to 7.00 for the first, over 7.00 for the second. The second is the more potent here.

First: CN1[C@H](C2CCCCC2)CN(c2ccccc2)c2cc(Cl)c(-c3ncc(C(=O)O)o3)cc2S1(=O)=O [Example 132, (R)-2-(7-chloro-3-cyclohexyl-2-methyl-1,1-dioxido-5-phenyl-2,3,4,5-tetrahydrobenzo[f][1,2,5]thiadiazepin-8-yl)oxazole-5-carboxylic acid]
Second: Cc1ccc(C(=O)O)c(C)c1-c1cc2c(cc1Cl)N(c1ccccc1)C[C@@H](C1CCCCC1)N(C)S2(=O)=O [Example 146, 3-((3R)-7-chloro-3-cyclohexyl-2-methyl-1,1-dioxido-5-phenyl-2,3,4,5-tetrahydrobenzo[f][1,2,5]thiadiazepin-8-yl)-2,4-dimethylbenzoic acid]
The pEC50 of the first is higher: 6.00 to 7.00 for the first, under 6.00 for the second. The first is the more potent here.

`CC(C)C[C@@H]1CN(C(C)C)c2cc(Oc3ccccc3F)c(-c3ccc(F)c(C(=O)O)c3)cc2S(=O)(=O)N1C` [Example 468] and `CO[C@H]1C[C@@H](N2C[C@@H](CC(C)C)N(C)S(=O)(=O)c3cc(-c4ccc(F)c(C(=O)O)c4)c(Oc4ccccc4F)cc32)C1` [Example 473] fall in the same range of pEC50: 6.00 to 7.00 for the first, 6.00 to 7.00 for the second.

Compared with `CN1[C@H](C2CCCCC2)CN(c2ccc(F)cc2)c2cc(Cl)c(-c3ccc(F)c(C(=O)O)c3)cc2S1(=O)=O` [Example 294], `CN1[C@H](C2CCCCC2)CN(c2ccncc2)c2cc(Cl)c(-c3ccc(F)c(C(=O)O)c3)cc2S1(=O)=O` [Example 283] is lower in pEC50: 6.00 to 7.00 for the first, under 6.00 for the second.

`CN1[C@H](C2CCCCC2)CN(c2ccccc2)c2cc(C#Cc3ccsc3)c(-c3ccc(F)c(C(=O)O)c3)cc2S1(=O)=O` [Example 602, (R)-5-(3-cyclohexyl-2-methyl-1,1-dioxido-5-phenyl-7-(thiophen-3-ylethynyl)-2,3,4,5-tetrahydrobenzo[f][1,2,5]thiadiazepin-8-yl)-2-fluorobenzoic acid] and `Cc1cscc1COc1cc2c(cc1-c1ccc(F)c(C(=O)O)c1)S(=O)(=O)N(C)[C@H](C1CCCCC1)CN2c1ccccc1` [Example 338] cannot be ordered by pEC50: over 7.00 for the first, over 7.00 for the second.

`CN1[C@H](C2CCCCC2)CNc2cc(C34CC(C3)C4)c(-c3ccc(F)c(C(=O)O)c3)cc2S1(=O)=O` [Example 585] and `CN1[C@H](C2CCCCC2)CN(C2CCC2)c2cc(Cl)c(-c3ccc(F)c(C(=O)O)c3)cc2S1(=O)=O` [Example 322] fall in the same range of pEC50: 6.00 to 7.00 for the first, 6.00 to 7.00 for the second.

`CC(C)C[C@@H]1CN(c2ccccc2)c2cc(Nc3ccccc3F)c(-c3ccc(Cl)c(C(=O)O)c3)cc2S(=O)(=O)N1C` [Example 546] and `CC(C)C[C@@H]1CN(c2ccccc2)c2cc(Cl)c(-c3ccc(-c4ccccc4)c(C(=O)O)c3)cc2S(=O)(=O)N1C` [Example 215, (R)-4-(7-chloro-3-isobutyl-2-methyl-1,1-dioxido-5-phenyl-2,3,4,5-tetrahydrobenzo[f][1,2,5]thiadiazepin-8-yl)-[1,1′-biphenyl]-2-carboxylic acid] fall in the same range of pEC50: 6.00 to 7.00 for the first, 6.00 to 7.00 for the second.

First: CC(C)C[C@@H]1CN(c2ccccc2)c2cc(C3=CCC(C)(C)CC3)c(-c3ccc(C4=CCC(C)(C)CC4)c(C(=O)O)c3)cc2S(=O)(=O)N1C [Example 218]
Second: CC(C)C[C@@H]1CN(c2ccccc2)c2cc(Oc3ccc(OC(F)(F)F)cc3)c(-c3ccc(F)c(C(=O)O)c3)cc2S(=O)(=O)N1C [Example 439]
The pEC50 of the first is lower: 6.00 to 7.00 for the first, over 7.00 for the second.

`CN1[C@H](C2CCCCC2)CN(c2cnccn2)c2cc(Cl)c(-c3ccc(F)c(C(=O)O)c3)cc2S1(=O)=O` [Example 289] and `CN1[C@H](C2CCCCC2)CN(c2cnc(C(F)(F)F)nc2)c2cc(Cl)c(-c3ccc(F)c(C(=O)O)c3)cc2S1(=O)=O` [Example 288] fall in the same range of pEC50: 6.00 to 7.00 for the first, 6.00 to 7.00 for the second.

Compared with `CN1[C@H](C2CCCCC2)CN(c2ccccc2)c2cc(OC3CC4(CCC4)C3)c(-c3cc(F)c(C(=O)O)s3)cc2S1(=O)=O` [Example 484], `COc1c(F)cccc1Oc1cc2c(cc1-c1ccc(F)c(C(=O)O)c1)S(=O)(=O)N(C)[C@H](C1CCCCC1)CN2c1ccccc1` [Example 407] is higher in pEC50: 6.00 to 7.00 for the first, over 7.00 for the second.

First: CSc1cc2c(cc1-c1cccc(C(=O)O)c1)S(=O)(=O)N1CC3(CC3)CC1CN2c1ccccc1 (stereo not drawn) [Example 18, 3-(8-(methylthio)-5,5-dioxido-10-phenyl-1,10,11,11a-tetrahydro-3H-spiro[benzo[f]pyrrolo[1,2-b][1,2,5]thiadiazepine-2,1′-cyclopropan]-7-yl)benzoic acid]
Second: CC[C@@H](C)[C@@H]1CN(c2ccccc2)c2cc(Cl)c(-c3ccc(F)c(C(=O)O)c3)cc2S(=O)(=O)N1C [Example 68]
The pEC50 of the first is lower: 6.00 to 7.00 for the first, over 7.00 for the second. The second is the more potent here.

Work on `CCCC[C@@H]1CN(c2ccccc2)c2cc(-n3cnc4ccccc43)c(-c3ccc(F)c(C(=O)O)c3)cc2S(=O)(=O)N1C` [Example 527] yielded a pEC50 of 6.00 to 7.00.
